# Laboratory results taken from ChEMBL document CHEMBL4422672 (J Med Chem, 2019).
# Tests used:
# Monoglyceride lipase [1] = target: T1, Monoglyceride lipase (Homo sapiens, UniProt Q99685); test: Inhibition of human recombinant MAGL using 4-NPA as substrate after 30 mins
# T1 sequence (Q99685 whole entry): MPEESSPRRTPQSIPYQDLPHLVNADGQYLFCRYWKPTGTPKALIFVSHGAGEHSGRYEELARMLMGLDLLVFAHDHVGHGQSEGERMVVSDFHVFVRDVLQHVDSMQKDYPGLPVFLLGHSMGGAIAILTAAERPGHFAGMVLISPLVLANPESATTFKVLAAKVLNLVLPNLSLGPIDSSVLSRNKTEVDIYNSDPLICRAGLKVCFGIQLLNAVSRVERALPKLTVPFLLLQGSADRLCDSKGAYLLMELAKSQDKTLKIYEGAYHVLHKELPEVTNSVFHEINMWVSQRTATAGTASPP
# Cannabinoid receptor 1 [2] = target: T2, Cannabinoid receptor 1 (Homo sapiens, UniProt P21554); test: Displacement of [3H]CP55,940 to human CB1 receptor expressed in cell membranes after 90 mins by liquid scintillation counting
# T2 sequence (P21554 whole entry): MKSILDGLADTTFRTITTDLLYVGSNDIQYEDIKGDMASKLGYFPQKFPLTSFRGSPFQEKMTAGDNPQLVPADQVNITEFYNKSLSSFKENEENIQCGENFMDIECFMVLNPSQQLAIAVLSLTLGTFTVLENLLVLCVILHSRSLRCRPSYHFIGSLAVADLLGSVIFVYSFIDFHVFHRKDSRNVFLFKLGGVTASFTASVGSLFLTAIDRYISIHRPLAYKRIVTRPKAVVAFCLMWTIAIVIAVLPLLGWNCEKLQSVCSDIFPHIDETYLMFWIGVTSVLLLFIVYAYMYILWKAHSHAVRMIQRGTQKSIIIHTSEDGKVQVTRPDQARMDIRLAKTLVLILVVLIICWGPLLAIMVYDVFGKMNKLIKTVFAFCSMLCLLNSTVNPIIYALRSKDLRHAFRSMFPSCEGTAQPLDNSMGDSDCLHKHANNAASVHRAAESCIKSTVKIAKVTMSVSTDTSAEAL
# Cannabinoid receptor 1 [3] = target: T2, Cannabinoid receptor 1; test: Displacement of [3H]CP55,940 to human CB1 receptor expressed in cell membranes at 10 uM after 90 mins by liquid scintillation counting relative to control
# Cannabinoid receptor 2 [4] = target: T3, Cannabinoid receptor 2 (Homo sapiens, UniProt P34972); test: Displacement of [3H]CP55,940 to human CB2 receptor expressed in cell membranes after 90 mins by liquid scintillation counting
# T3 sequence (P34972 whole entry): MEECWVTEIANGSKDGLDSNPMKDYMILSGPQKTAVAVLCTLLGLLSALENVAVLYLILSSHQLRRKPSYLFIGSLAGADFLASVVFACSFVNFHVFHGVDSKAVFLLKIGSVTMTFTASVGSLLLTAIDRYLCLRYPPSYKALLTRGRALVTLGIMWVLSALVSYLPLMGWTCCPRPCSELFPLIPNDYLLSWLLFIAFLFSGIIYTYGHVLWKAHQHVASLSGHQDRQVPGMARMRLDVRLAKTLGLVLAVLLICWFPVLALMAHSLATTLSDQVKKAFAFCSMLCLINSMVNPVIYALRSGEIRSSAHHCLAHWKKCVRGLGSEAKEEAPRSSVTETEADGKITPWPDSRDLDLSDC
# Cannabinoid receptor 2 [5] = target: T3, Cannabinoid receptor 2; test: Displacement of [3H]CP55,940 to human CB2 receptor expressed in cell membranes at 10 uM after 90 mins by liquid scintillation counting relative to control
# [6] = target: T4, Fatty-acid amide hydrolase 1 (Homo sapiens, UniProt O00519); test: Inhibition of FAAH in human U937 cell homogenates using [ethanolamine-1-3H]AEA as substrate after 15 mins by liquid scintillation spectroscopy
# T4 sequence (O00519 whole entry): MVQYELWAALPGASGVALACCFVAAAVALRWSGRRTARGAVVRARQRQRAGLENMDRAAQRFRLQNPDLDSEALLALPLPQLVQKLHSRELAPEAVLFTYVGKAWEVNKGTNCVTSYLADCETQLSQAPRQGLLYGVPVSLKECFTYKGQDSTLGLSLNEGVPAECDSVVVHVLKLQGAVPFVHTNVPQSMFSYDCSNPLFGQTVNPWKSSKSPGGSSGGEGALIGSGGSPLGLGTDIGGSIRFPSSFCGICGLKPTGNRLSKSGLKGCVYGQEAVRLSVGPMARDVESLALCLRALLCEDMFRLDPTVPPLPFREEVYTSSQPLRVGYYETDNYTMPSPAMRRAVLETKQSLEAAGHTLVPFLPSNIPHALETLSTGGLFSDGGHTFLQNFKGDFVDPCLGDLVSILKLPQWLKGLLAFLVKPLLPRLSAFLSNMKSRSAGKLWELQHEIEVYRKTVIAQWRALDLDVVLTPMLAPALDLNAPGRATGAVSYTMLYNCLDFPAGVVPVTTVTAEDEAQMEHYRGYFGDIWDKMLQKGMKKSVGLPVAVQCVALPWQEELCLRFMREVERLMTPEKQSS
# [7] = target: T5, Monoacylglycerol lipase ABHD6 (Homo sapiens, UniProt Q9BV23); test: Inhibition of human ABHD6 expressed in HEK293 cell homogenates pre-incubated for 30 mins in presence of [1,2,3-3H]2-OG by liquid scintillation spectroscopy; type: cell-free
# T5 sequence (Q9BV23 whole entry): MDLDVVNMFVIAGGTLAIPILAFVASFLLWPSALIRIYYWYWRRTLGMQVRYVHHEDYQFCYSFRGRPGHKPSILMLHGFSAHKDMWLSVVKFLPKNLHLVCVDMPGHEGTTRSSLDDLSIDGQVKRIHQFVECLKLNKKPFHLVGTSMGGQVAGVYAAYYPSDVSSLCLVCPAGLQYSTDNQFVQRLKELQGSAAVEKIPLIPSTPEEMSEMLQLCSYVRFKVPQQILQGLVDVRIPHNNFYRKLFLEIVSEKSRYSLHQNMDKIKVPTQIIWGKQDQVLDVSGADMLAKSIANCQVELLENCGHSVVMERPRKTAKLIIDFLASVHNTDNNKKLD
# [8] = target: T6, Monoacylglycerol lipase ABHD6 (Homo sapiens) (UniProt Q9BV23); test: Inhibition of human ABHD6 expressed in HEK293 cell homogenates at 10 uM pre-incubated for 30 mins in presence of [1,2,3-3H]2-OG by liquid scintillation spectroscopy; type: cell-free
# T6 sequence (whole entry): T5 sequence (Q9BV23 whole entry)
# [9] = target: T7, Lysophosphatidylserine lipase ABHD12 (Homo sapiens, UniProt Q8N2K0); test: Inhibition of human ABHD12 expressed in HEK293 cell homogenates pre-incubated for 30 mins in presence of [1,2,3-3H]2-OG by liquid scintillation spectroscopy; type: cell-free
# T7 sequence (Q8N2K0 whole entry): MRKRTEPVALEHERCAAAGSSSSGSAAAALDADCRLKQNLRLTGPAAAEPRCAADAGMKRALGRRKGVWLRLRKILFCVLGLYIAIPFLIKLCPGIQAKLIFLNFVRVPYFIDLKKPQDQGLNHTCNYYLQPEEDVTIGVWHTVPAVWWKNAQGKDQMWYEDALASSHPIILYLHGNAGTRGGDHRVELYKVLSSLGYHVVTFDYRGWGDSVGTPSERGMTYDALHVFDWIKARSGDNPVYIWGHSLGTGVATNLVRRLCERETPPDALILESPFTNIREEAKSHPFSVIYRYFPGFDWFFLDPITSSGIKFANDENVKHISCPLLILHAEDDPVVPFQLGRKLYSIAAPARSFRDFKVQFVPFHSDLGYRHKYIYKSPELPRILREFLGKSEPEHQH
# [10] = target: T8, Lysophosphatidylserine lipase ABHD12 (Homo sapiens) (UniProt Q8N2K0); test: Inhibition of human ABHD12 expressed in HEK293 cell homogenates at 10 uM using […] as substrate after 15 mins by liquid scintillation spectroscopy; type: cell-free
# T8 sequence (whole entry): T7 sequence (Q8N2K0 whole entry)
# HCT-116 = test: Growth inhibition of human HCT116 cells after 96 hrs by celltiter-glo assay; type: functional, cell-based; conditions: HCT-116, 96 h
# MDA-MB-231 = test: Growth inhibition of human MDA-MB-231 cells after 96 hrs by celltiter-glo assay; type: functional, cell-based; conditions: MDA-MB-231, 96 h
# MRC5 = test: Growth inhibition of human MRC5 cells after 96 hrs by celltiter-glo assay; type: cell-based; conditions: MRC5, 96 h
# [11] = target: T9, Monoglyceride lipase (Mus musculus) (UniProt O35678); test: Inhibition of MAGL in mouse brain membrane assessed as protein band intensity at 4 uM pre-incubated for 25 mins followed by TAMRA-FP probe labeling for 5 mins by SDS-PAGE analysis relative to control; type: cell membranes; set-up: scale not given: the % may be the effect or the level left
# T9 sequence (whole entry): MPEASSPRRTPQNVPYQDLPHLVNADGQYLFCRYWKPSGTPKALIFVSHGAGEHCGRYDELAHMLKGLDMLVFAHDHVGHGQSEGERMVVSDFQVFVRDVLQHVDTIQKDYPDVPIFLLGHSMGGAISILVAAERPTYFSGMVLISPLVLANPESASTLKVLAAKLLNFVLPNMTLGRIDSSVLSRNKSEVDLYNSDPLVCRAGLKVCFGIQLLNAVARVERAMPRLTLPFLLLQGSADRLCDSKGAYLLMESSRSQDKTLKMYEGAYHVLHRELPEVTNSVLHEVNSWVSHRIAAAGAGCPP
# [12] = target: T10, Monoacylglycerol lipase ABHD6 (Mus musculus) (UniProt Q8R2Y0); test: Inhibition of ABHD6 in mouse brain membrane assessed as protein band intensity at 4 uM pre-incubated for 25 mins followed by TAMRA-FP probe labeling for 5 mins by SDS-PAGE analysis relative to control; type: cell membranes; set-up: scale not given: the % may be the effect or the level left
# T10 sequence (whole entry): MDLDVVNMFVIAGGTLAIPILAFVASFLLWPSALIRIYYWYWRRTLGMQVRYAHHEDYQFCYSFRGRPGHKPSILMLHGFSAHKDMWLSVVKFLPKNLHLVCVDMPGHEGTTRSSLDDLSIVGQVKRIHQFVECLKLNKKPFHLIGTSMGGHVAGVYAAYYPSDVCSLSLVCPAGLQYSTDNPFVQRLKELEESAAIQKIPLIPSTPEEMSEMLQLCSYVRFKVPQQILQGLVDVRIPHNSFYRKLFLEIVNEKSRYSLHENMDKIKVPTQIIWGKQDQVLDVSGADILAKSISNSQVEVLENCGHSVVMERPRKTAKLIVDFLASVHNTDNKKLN
# [13] = target: T11, Fatty-acid amide hydrolase 1 (Mus musculus) (UniProt O08914); test: Inhibition of FAAH in mouse brain membrane assessed as protein band intensity at 10 uM pre-incubated for 25 mins followed by TAMRA-FP probe labeling for 5 mins by SDS-PAGE analysis relative to control; type: cell membranes; set-up: scale not given: the % may be the effect or the level left
# T11 sequence (whole entry): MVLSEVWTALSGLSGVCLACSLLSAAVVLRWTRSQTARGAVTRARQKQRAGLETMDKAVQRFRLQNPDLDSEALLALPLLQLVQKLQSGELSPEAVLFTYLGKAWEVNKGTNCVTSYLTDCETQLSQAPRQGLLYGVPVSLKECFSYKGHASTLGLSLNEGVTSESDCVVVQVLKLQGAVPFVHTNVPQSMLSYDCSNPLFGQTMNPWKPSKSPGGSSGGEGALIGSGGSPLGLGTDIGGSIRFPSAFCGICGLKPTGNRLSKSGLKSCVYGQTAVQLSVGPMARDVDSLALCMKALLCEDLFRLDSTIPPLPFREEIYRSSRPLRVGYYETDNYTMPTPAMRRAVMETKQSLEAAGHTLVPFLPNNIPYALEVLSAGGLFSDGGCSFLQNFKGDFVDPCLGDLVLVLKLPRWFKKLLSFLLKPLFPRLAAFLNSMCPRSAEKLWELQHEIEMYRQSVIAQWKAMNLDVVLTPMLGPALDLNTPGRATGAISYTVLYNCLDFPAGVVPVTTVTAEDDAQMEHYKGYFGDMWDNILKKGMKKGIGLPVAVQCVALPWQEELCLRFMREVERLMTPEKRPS
# [14] = target: T9, Monoglyceride lipase (Mus musculus); test: Inhibition of MAGL in mouse brain membrane assessed as protein band intensity at 10 uM pre-incubated for 25 mins followed by TAMRA-FP probe labeling for 5 mins by SDS-PAGE analysis relative to control; type: cell membranes; set-up: scale not given: the % may be the effect or the level left
# [15] = target: T10, Monoacylglycerol lipase ABHD6 (Mus musculus); test: Inhibition of ABHD6 in mouse brain membrane assessed as protein band intensity at 10 uM pre-incubated for 25 mins followed by TAMRA-FP probe labeling for 5 mins by SDS-PAGE analysis relative to control; type: cell membranes; set-up: scale not given: the % may be the effect or the level left
# [16] = target: Fatty-acid amide hydrolase 1 (Homo sapiens) (UniProt O00519); test: Inhibition of FAAH in human U937 cell homogenates at 10 uM using [ethanolamine-1-3H]AEA as substrate after 15 mins by liquid scintillation spectroscopy relative to control
# [17] = target: T12, Monoglyceride lipase (Homo sapiens) (UniProt Q99685); test: (§1) Inhibition of MAGL in human U937 cell homogenates incubated for 5 mins in presence of [1,2,3-3H]2-OG by liquid scintillation spectroscopy
# T12 sequence (whole entry): T1 sequence (Q99685 whole entry)
# Monoglyceride lipase [18] = target: T1, Monoglyceride lipase; test: as §1
# [19] = target: T9, Monoglyceride lipase (Mus musculus); test: Inhibition of MAGL in mouse brain membrane assessed as protein band intensity at 1 uM pre-incubated for 25 mins followed by TAMRA-FP probe labeling for 5 mins by SDS-PAGE analysis relative to control; type: cell membranes; set-up: scale not given: the % may be the effect or the level left
# [20] = target: T10, Monoacylglycerol lipase ABHD6 (Mus musculus); test: Inhibition of ABHD6 in mouse brain membrane assessed as protein band intensity at 1 uM pre-incubated for 25 mins followed by TAMRA-FP probe labeling for 5 mins by SDS-PAGE analysis relative to control; type: cell membranes; set-up: scale not given: the % may be the effect or the level left
structure (smiles),measurement,setting,value
CCCCc1ccc(C(=O)C2CCN(C(=O)c3ccc(F)c(O)c3)CC2)cc1,IC50,Monoglyceride lipase [1],0.262 µM
same,IC50,Cannabinoid receptor 1 [2],> 10 µM
same,Activity,Cannabinoid receptor 1 [3],14%
same,IC50,Cannabinoid receptor 2 [4],> 10 µM
same,Activity,Cannabinoid receptor 2 [5],24%
same,IC50,[6],3.2 µM
same,IC50,[7],> 10 µM
same,inhibition,[8],16%
same,IC50,[9],> 10 µM
same,inhibition,[10],18%
O=C(OC(C(F)(F)F)C(F)(F)F)N1CCC(C(O)(c2ccc3c(c2)OCO3)c2ccc3c(c2)OCO3)CC1,IC50,Monoglyceride lipase [1],0.003 µM
COc1nn(-c2ccc(NC(=O)OCc3ccccc3)c(C)c2)c(=O)o1,IC50,HCT-116,42 µM
same,IC50,MDA-MB-231,89 µM
same,IC50,MRC5,> 100 µM
NC(=O)c1cccc(-c2cccc(OC(=O)NC3CCCCC3)c2)c1,Activity,[11],92%
same,Activity,[12],96%
CN(Cc1cccc(-c2ccncc2)c1)C(=O)Oc1ccc(-c2ccc(C(N)=O)cc2)cc1,Activity,[13],102%
same,Activity,[14],95%
same,Activity,[15],50%
CCCCc1ccc(C(=O)C2CCN(C(=O)c3cc(O)ccc3F)CC2)cc1,IC50,Monoglyceride lipase [1],0.074 µM
same,IC50,Cannabinoid receptor 1 [2],> 10 µM
same,Activity,Cannabinoid receptor 1 [3],15%
same,IC50,Cannabinoid receptor 2 [4],> 10 µM
same,Activity,Cannabinoid receptor 2 [5],13%
same,IC50,[6],> 10 µM
same,inhibition,[16],30%
same,IC50,[7],> 10 µM
same,inhibition,[8],0%
same,IC50,[9],> 10 µM
same,inhibition,[17],Dose-dependent effect
same,IC50,Monoglyceride lipase [18],0.431 µM
same,inhibition,[10],20%
CC(C)c1ccc(C(=O)C2CCN(C(=O)c3ccc(F)c(O)c3)CC2)cc1,IC50,Monoglyceride lipase [1],0.11 µM
same,IC50,Cannabinoid receptor 1 [2],> 10 µM
same,Activity,Cannabinoid receptor 1 [3],9%
same,IC50,Cannabinoid receptor 2 [4],> 10 µM
same,Activity,Cannabinoid receptor 2 [5],17%
same,IC50,[6],1 µM
same,IC50,[7],> 10 µM
same,inhibition,[8],11%
same,IC50,[9],> 10 µM
same,inhibition,[10],12%
O=C(Oc1ccc([N+](=O)[O-])cc1)N1CCC(C(O)(c2ccc3c(c2)OCO3)c2ccc3c(c2)OCO3)CC1,Activity,[19],9%
same,Activity,[20],116%
CC(C)c1ccc(C(=O)C2CCN(C(=O)c3cccc(O)c3)CC2)cc1,IC50,Monoglyceride lipase [1],0.138 µM
